{"source": "patent US20230023559A1", "about": "“ARYLMETHYLENE HETEROCYCLIC COMPOUNDS AS KV1.3 POTASSIUM SHAKER CHANNEL BLOCKERS” (D. E. Shaw Research, LLC, priority 2019, published 2023)"}
{"target": "T1, Kv1.3 potassium channel (Homo sapiens, UniProt P22001)", "T1 construct": "expressed in transfected cells", "T1 sequence (P22001 whole entry)": "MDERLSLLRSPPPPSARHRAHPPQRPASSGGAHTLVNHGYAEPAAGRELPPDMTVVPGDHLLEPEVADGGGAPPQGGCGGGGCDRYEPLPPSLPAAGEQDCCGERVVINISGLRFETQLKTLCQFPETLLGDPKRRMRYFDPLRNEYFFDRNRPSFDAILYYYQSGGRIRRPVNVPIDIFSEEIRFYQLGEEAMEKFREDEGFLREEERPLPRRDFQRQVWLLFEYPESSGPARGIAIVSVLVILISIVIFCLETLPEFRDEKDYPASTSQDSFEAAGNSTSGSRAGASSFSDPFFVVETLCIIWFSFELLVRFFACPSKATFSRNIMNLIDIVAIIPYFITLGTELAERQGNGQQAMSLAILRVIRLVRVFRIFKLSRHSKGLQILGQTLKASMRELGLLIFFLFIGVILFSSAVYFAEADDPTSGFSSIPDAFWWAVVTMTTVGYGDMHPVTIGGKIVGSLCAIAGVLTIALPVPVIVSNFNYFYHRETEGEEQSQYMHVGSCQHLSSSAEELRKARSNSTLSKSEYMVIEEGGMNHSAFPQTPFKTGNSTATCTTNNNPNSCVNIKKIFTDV", "assay": "Kv1.3 potassium channel blocker activity, automated whole-cell patch clamp (Patchliner)", "format": "cell-based", "settings": "CHO-K1 cells stably expressing Kv1.3; whole cell current inhibition; read-out: Kv1.3_IC50", "protocol": "The assay described below is used to evaluate the disclosed compound's activities as Kv1.3 potassium channel blockers.\nCHO-K1 cells stably expressing Kv1.3 were grown in DMEM containing 10% heat-inactivated FBS, 1 mM Sodium Pyruvate, 2 mM L-Glutamine and G418 (500 μg/ml).\nAll compounds were dissolved in DMSO at 30 mM.\nThe currents were evoked by applying 100 ms depolarizing pulses from −90 mV (holding potential) to +40 mV were applied with 0.1 Hz frequency. […] 10 second breaks were used between pulse trains (see Table A below).\nData were sampled at 10 kHz without filtering. Passive leak currents were subtracted online using a P/4 procedure (HEKA Elektronik Dr. Schulze GmbH). […] Total compound incubation time before the next pulse train was not longer than 10 seconds. Peak current inhibition was observed during compound equilibration.", "units": {"IC50": "µM"}}
{"smiles": "CC(C)(N)C(=O)N1CCC([C@@H](N)c2cc(Cl)c(Cl)cc2O)CC1", "note": "[Compound 90, (R)-2-amino-1-(4-(amino(4,5-dichloro-2-hydroxyphenyl)methyl)piperidin-1-yl)-2-methylpropan-1-one trifluoroacetic acid]", "IC50": "< 0.5"}
{"smiles": "N[C@H](c1cc(Cl)c(Cl)cc1O)[C@@H]1CCCN(C(=O)[C@H](O)CO)C1", "note": "[Compound 330, (2R)-1-[(3R)-3-[(S)-amino(4,5-dichloro-2-hydroxyphenyl)methyl]piperidin-1-yl]-2,3-dihydroxypropan-1-one Trifluoroacetic Acid]", "IC50": "> 10"}
{"smiles": "N[C@@H](c1cc(Cl)c(Cl)cc1O)[C@@H]1CCN(C(=O)[C@H](O)CO)C1", "note": "[Compound 311, (2R)-1-[(3R)-3-[(R)-amino(4,5-dichloro-2-hydroxyphenyl)methyl]pyrrolidin-1-yl]-2,3-dihydroxypropan-1-one]", "IC50": "< 10"}
{"smiles": "NC(c1cc(Cl)c(Cl)cc1O)[C@@H]1C[C@@H]2CN(C(=O)[C@H](O)CO)C[C@@H]2C1", "note": "(stereo partly drawn) [Compound 225, (2R)-1-((3aR,5R,6aS)-5-(amino(4,5-dichloro-2-hydroxyphenyl)methyl)hexahydrocyclopenta[c]pyrrol-2 (1H)-yl)-2,3-dihydroxypropan-1-one]", "IC50": "< 10"}
{"smiles": "Cc1cc(O)c([C@H](N)C2CCN(C(=O)c3ccc4oc(=O)[nH]c4c3)CC2)cc1Cl", "note": "[Compound 258, 5-[4-[(R)-amino(5-chloro-2-hydroxy-4-methylphenyl)methyl]piperidine-1-carbonyl]-3H-1,3-benzoxazol-2-one formic acid]", "IC50": "< 0.5"}
{"smiles": "N[C@@H](c1cc(Cl)c(C(F)F)cc1O)C1CCN(C(=O)[C@H](O)CO)CC1", "note": "[Compound 227, (2R)-1-[4-[(R)-amino[5-chloro-4-(difluoromethyl)-2-hydroxyphenyl]methyl]piperidin-1-yl]-2,3-dihydroxypropan-1-one Trifluoroacetic Acid]", "IC50": "< 0.5"}
{"smiles": "CN[C@H](c1cc(Cl)c(Cl)cc1O)C1CCN(C(=O)[C@H](O)CO)CC1", "note": "(single isomer, unassigned) [Compound 336]", "IC50": "< 10"}
{"smiles": "NCC(c1cc(Cl)c(Cl)cc1O)C1CCNCC1", "note": "(stereo not shown) [Compound 8, 2-[2-amino-1-(piperidin-4-yl)ethyl]-4,5-dichlorophenol]", "IC50": "< 10"}
{"smiles": "CN(C)C(c1cc(Cl)c(Cl)cc1O)C1CCN(C(=O)[C@H](O)CO)CC1", "note": "(stereo partly drawn) [Compound 193, (2R)-1-[4-[(4,5-dichloro-2-hydroxyphenyl)(dimethylamino)methyl]piperidin-1-yl]-2,3-dihydroxypropan-1-one Trifluoroacetic Acid]", "IC50": "< 30"}
{"smiles": "CN1CCC(C(NC(=O)C(F)(F)F)c2cc(Cl)c(Cl)cc2O)CC1", "note": "(stereo not shown) [Compound 14, N-[(4,5-dichloro-2-hydroxyphenyl)(1-methylpiperidin-4-yl)methyl]-2,2,2-trifluoroacetamide]", "IC50": "< 10"}
{"smiles": "O=C([C@@H]1CCNC1)N1CCC([C@H](O)c2c(O)ccc(Cl)c2Cl)CC1", "note": "(single isomer, unassigned) [Compound 321, Trifluoroacetic Acid]", "IC50": "< 10"}
{"smiles": "O=S(=O)([C@@H]1CCNC1)N1CCC([C@@H](O)c2cc(Cl)c(Cl)cc2O)CC1", "note": "(single isomer, unassigned; isomer 4) [Compound 127, 4,5-dichloro-2-(hydroxy(1-(pyrrolidin-3-ylsulfonyl)piperidin-4-yl)methyl)phenol Isomer 4]", "IC50": "< 0.5"}
{"smiles": "CC(=O)N1CCC(C(CN)c2cc(Cl)c(Cl)cc2O)CC1", "note": "(stereo not shown) [Compound 28, 1-[4-[2-amino-1-(4,5-dichloro-2-hydroxyphenyl)ethyl]piperidin-1-yl]ethan-1-one]", "IC50": "< 30"}
{"smiles": "Cc1cc(O)c([C@H](N)C2CCN(C(=O)c3ccc4c(c3)NC(=O)CO4)CC2)cc1Cl", "note": "[Compound 269, 6-[4-[(R)-amino (5-chloro-2-hydroxy-4-methylphenyl)methyl]piperidine-1-carbonyl]-2,4-dihydro-1,4-benzoxazin-3-one]", "IC50": "< 10"}
{"smiles": "Cc1ccc([C@H](N)C2CCN(C(=O)[C@H](O)CO)CC2)c(O)c1", "note": "[Compound 294, (2R)-1-[4-[(R)-amino(2-hydroxy-4-methylphenyl)methyl]piperidin-1-yl]-2,3-dihydroxypropan-1-one Trifluoroacetic Acid]", "IC50": "< 10"}
{"smiles": "O=C([C@H]1CCNC1)N1CCC[C@H]([C@H](O)c2c(O)ccc(Cl)c2Cl)CC1", "note": "(single isomer, unassigned; isomer 2) [Compound 129]", "IC50": "< 10"}
{"smiles": "C[C@@](O)(c1cc(Cl)c(Cl)cc1O)C1CCNCC1", "note": "(single isomer, unassigned; isomer 1) [Compound 25, 4,5-dichloro-2-(1-hydroxy-1-(piperidin-4-yl)ethyl)phenol isomer 1]", "IC50": "< 10"}
{"smiles": "N[C@H](c1cc(Cl)c(Cl)cc1O)C1C2CCC1CN(C(=O)[C@H](O)CO)C2", "note": "(stereo partly drawn) [Compound 314, (2R)-1-[8-[(S)-amino(4,5-dichloro-2-hydroxyphenyl)methyl]-3-azabicyclo[3.2.1]octan-3-yl]-2,3-dihydroxypropan-1-one Trifluoroacetic Acid]", "IC50": "< 30"}
{"smiles": "NC(c1cc(Cl)c(Cl)cc1O)C1CCN(C2CCNC2=O)CC1", "note": "(stereo not shown) [Compound 65, 3-(4-(amino(4,5-dichloro-2-hydroxyphenyl)methyl)piperidin-1-yl)pyrrolidin-2-one Trifluoroacetic Acid]", "IC50": "< 10"}
{"smiles": "N[C@@H](c1cc(Cl)c(Cl)cc1O)[C@H]1CCCN(C(=O)[C@H](O)CO)CC1", "note": "(single isomer, unassigned; isomer 2) [Compound 334]", "IC50": "< 10"}
{"smiles": "COCCN1CCC(C(N)c2cc(Cl)c(Cl)cc2O)CC1", "note": "(stereo not shown) [Compound 64, 2-(amino(1-(2-methoxyethyl)piperidin-4-yl)methyl)-4,5-dichlorophenol]", "IC50": "< 10"}
{"smiles": "CN1C[C@@H](C(=O)N2CCC([C@@H](N)c3cc(Cl)c(Cl)cc3O)CC2)OCC1=O", "note": "(single isomer, unassigned; isomer 2) [Compound 278]", "IC50": "< 10"}
{"smiles": "O=C([C@H]1CCNC1)N1CCC[C@@H]([C@H](O)c2c(O)ccc(Cl)c2Cl)CC1", "note": "(single isomer, unassigned; isomer 1) [Compound 322]", "IC50": "< 10"}
{"smiles": "CC(N)(c1cc(Cl)c(Cl)cc1O)C1CCNCC1", "note": "(stereo not shown) [Compound 40, 2-[1-amino-1-(piperidin-4-yl)ethyl]-4,5-dichlorophenol]", "IC50": "< 30"}
{"smiles": "O=C([C@H]1CCNC1)N1CCCC(C(O)c2cc(Cl)c(Cl)cc2O)CC1", "note": "(stereo partly drawn) [Compound 128, 4,5-dichloro-2-[hydroxy([1-[(3S)-pyrrolidine-3-carbonyl]azepan-4-yl])methyl]phenol]", "IC50": "< 10"}
{"smiles": "N[C@@H](c1cc(Cl)c(C2=CCCC2)cc1O)C1CCN(C(=O)[C@H](O)CO)CC1", "note": "[Compound 318, (2R)-1-[4-[(R)-amino[5-chloro-4-(cyclopent-1-en-1-yl)-2-hydroxyphenyl]methyl]piperidin-1-yl]-2,3-dihydroxypropan-1-one Trifluoroacetic Acid]", "IC50": "< 30"}
{"smiles": "COc1cc(C(=O)N2CCC([C@@H](N)c3cc(Cl)c(C)cc3O)CC2)c[nH]c1=O", "note": "[Compound 251, 5-[4-[(R)-amino(5-chloro-2-hydroxy-4-methylphenyl)methyl]piperidine-1-carbonyl]-3-methoxy-1H-pyridin-2-one Trifluoroacetic Acid]", "IC50": "< 0.5"}
{"smiles": "Cc1cc(O)c([C@H](N)C2CCN(C(=O)c3ccc4[nH]c(=O)[nH]c4c3)CC2)cc1Cl", "note": "[Compound 256, 5-[4-[(R)-amino (5-chloro-2-hydroxy-4-methylphenyl)methyl]piperidine-1-carbonyl]-1,3-dihydro-1,3-benzodiazol-2-one trifluoroacetic acid]", "IC50": "< 0.5"}
{"smiles": "CNC(c1cc(Cl)c(Cl)cc1O)C1CCN(C(=O)C(O)CO)CC1", "note": "(stereo not shown) [Compound 184, 1-[4-[(4,5-dichloro-2-hydroxyphenyl)(methylamino)methyl]piperidin-1-yl]-2,3-dihydroxypropan-1-one Trifluoroacetic Acid]", "IC50": "< 10"}
{"smiles": "NC(c1cc(Cl)c(Cl)cc1O)C1CCN(Cc2ccccc2)CC1", "note": "(stereo not shown) [Compound 41, 2-(amino(1-benzylpiperidin-4-yl)methyl)-4,5-dichlorophenol Trifluoroacetic Acid]", "IC50": "< 10"}
{"smiles": "CN1CC(C(=O)N2CCC([C@@H](N)c3cc(Cl)c(Cl)cc3O)CC2)OCC1=O", "note": "(stereo partly drawn) [Compound 268, 6-[4-[(R)-amino(4,5-dichloro-2-hydroxyphenyl)methyl]piperidine-1-carbonyl]-4-methylmorpholin-3-one trifluoroacetic acid]", "IC50": "< 0.5"}
{"smiles": "N[C@H](c1cc(Cl)c(Cl)cc1O)C1CCN(C(=O)[C@@H]2CCNC2)CC1", "note": "(single isomer, unassigned) [Compound 84]", "IC50": "< 10"}
{"smiles": "Cc1cc(O)c([C@H](N)C2CCN(C(=O)c3ccncc3)CC2)cc1Cl", "note": "[Compound 234, 2-[(R)-amino[1-(pyridine-4-carbonyl)piperidin-4-yl]methyl]-4-chloro-5-methylphenol trifluoroacetic acid]", "IC50": "< 0.5"}
{"smiles": "Oc1cc(Cl)c(Cl)cc1C(C1CCNCC1)n1cccn1", "note": "(stereo not shown) [Compound 13, 4,5-dichloro-2-[piperidin-4-yl(1H-pyrazol-1-yl)methyl]phenol]", "IC50": "< 10"}
{"smiles": "CN1C[C@H](C(=O)N2CCC([C@@H](N)c3cc(Cl)c(Cl)cc3O)CC2)OCC1=O", "note": "(single isomer, unassigned; isomer 1) [Compound 274]", "IC50": "< 0.5"}
{"smiles": "O=C([C@H]1CCNC1)N1CCC[C@H]([C@@H](O)c2c(O)ccc(Cl)c2Cl)CC1", "note": "(single isomer, unassigned; isomer 4) [Compound 130]", "IC50": "< 10"}
{"smiles": "CN(C)C(=O)CN1CCC(C(N)c2cc(Cl)c(Cl)cc2O)CC1", "note": "(stereo not shown) [Compound 55, 2-[4-[amino(4,5-dichloro-2-hydroxyphenyl)methyl]piperidin-1-yl]-N,N-dimethylacetamide]", "IC50": "< 10"}
